Experimental data reported in ChEMBL document CHEMBL1154884, “Synthesis and biological evaluation of triazol-4-ylphenyl-bearing histone deacetylase inhibitors as anticancer agents” (J Med Chem, 2010).
pIC50: −log10 of the molar value.

Legend:
cells [1] = conditions: Homo sapiens, Panc 04.03, 72 h
[2] = molecular target: T1, Protein deacetylase HDAC6 (Homo sapiens, UniProt Q9UBN7)
T1 sequence (Q9UBN7 whole entry): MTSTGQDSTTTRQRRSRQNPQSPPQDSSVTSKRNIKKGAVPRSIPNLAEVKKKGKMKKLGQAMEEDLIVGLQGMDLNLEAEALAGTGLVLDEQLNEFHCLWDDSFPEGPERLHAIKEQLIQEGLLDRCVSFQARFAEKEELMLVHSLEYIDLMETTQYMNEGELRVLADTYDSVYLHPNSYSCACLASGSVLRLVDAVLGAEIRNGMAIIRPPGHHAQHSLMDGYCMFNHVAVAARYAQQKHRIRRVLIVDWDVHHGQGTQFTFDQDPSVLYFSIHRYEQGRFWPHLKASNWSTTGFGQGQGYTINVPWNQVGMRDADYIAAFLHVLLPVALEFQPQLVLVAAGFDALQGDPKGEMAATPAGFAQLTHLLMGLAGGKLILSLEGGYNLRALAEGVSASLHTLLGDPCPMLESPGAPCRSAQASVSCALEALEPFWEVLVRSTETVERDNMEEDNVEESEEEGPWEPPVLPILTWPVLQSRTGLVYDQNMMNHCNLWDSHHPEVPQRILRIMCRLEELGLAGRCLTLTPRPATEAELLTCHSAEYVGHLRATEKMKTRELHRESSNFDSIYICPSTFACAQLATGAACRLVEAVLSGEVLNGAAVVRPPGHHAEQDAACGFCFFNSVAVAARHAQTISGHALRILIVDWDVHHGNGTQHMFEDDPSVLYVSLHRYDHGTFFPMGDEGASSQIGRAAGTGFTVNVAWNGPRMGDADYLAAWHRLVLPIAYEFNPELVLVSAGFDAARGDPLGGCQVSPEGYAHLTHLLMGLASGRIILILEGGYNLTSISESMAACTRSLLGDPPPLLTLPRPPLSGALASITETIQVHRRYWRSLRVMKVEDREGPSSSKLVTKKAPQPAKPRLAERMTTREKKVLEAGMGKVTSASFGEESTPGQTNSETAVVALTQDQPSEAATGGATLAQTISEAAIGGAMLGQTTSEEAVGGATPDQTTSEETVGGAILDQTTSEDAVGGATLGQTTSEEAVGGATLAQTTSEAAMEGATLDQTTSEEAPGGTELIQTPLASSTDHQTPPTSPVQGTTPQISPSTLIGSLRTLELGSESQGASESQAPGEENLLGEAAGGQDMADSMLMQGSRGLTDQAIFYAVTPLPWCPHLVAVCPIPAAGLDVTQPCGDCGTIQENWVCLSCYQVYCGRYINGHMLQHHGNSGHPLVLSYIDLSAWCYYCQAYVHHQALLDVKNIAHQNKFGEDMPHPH
Description: Inhibition of HDAC6 assessed as blockade of decorboxylation of carboxyfluorescein labeled acetylated peptide substrate after 17 hrs

Histone deacetylase 2 = Histone deacetylase 2 (Homo sapiens, UniProt Q92769)
Description: Inhibition of HDAC2 assessed as blockade of decorboxylation of carboxyfluorescein labeled acetylated peptide substrate after 17 hrs

Histone deacetylase 8 = molecular target: T2, Histone deacetylase 8 (Homo sapiens, UniProt Q9BY41)
T2 sequence (Q9BY41 whole entry): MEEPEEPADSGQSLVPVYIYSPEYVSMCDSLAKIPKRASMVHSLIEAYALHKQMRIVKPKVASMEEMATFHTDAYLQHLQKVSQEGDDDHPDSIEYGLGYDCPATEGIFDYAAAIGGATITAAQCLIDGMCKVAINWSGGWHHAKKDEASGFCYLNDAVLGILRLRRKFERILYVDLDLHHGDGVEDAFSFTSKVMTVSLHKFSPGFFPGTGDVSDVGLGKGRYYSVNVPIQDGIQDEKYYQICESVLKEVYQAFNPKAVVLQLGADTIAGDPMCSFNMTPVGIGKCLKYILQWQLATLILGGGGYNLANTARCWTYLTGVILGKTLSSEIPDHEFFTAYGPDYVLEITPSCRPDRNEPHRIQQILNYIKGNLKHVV
Description: Inhibition of HDAC8 assessed as blockade of decorboxylation of carboxyfluorescein labeled acetylated peptide substrate after 17 hrs

Histone deacetylase 1 = Histone deacetylase 1 (Homo sapiens, UniProt Q13547)
Description: Inhibition of HDAC1 assessed as blockade of decorboxylation of carboxyfluorescein labeled acetylated peptide substrate after 17 hrs

[3] = molecular target: T3, Polyamine deacetylase HDAC10 (Homo sapiens, UniProt Q969S8)
T3 sequence (Q969S8 whole entry): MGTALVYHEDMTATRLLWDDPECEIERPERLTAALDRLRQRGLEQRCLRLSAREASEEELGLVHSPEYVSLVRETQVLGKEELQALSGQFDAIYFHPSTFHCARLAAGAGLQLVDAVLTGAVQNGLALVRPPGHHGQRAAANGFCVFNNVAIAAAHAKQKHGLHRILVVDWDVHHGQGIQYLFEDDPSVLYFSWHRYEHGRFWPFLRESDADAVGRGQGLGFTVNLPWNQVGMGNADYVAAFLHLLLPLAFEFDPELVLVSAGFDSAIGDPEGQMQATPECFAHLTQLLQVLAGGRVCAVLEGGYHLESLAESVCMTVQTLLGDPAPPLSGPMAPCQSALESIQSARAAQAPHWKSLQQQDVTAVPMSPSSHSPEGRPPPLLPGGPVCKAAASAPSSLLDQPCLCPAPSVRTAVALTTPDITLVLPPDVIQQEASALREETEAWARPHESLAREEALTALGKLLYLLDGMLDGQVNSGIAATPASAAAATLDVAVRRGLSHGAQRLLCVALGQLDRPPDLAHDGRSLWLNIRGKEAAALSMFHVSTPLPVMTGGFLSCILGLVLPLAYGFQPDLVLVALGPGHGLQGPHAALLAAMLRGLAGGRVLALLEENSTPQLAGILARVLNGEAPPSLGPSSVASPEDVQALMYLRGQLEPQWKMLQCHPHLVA
Description: Inhibition of HDAC10 assessed as blockade of decorboxylation of carboxyfluorescein labeled acetylated peptide substrate after 17 hrs

HuP-T3 = assay: cells; conditions: Homo sapiens, HuP-T3, 72 h
Histone deacetylase 3 = Histone deacetylase 3 (Homo sapiens, UniProt O15379)
Description: Inhibition of HDAC3 assessed as blockade of decorboxylation of carboxyfluorescein labeled acetylated peptide substrate after 17 hrs

BXPC-3 = assay: cells; conditions: Homo sapiens, BXPC-3, 72 h
MIA PaCa-2 = assay: cells; conditions: Homo sapiens, MIA PaCa-2, 72 h
cells [4] = conditions: Homo sapiens, SU.86.86, 72 h

Sequence of Histone deacetylase 2 (Q92769 whole entry): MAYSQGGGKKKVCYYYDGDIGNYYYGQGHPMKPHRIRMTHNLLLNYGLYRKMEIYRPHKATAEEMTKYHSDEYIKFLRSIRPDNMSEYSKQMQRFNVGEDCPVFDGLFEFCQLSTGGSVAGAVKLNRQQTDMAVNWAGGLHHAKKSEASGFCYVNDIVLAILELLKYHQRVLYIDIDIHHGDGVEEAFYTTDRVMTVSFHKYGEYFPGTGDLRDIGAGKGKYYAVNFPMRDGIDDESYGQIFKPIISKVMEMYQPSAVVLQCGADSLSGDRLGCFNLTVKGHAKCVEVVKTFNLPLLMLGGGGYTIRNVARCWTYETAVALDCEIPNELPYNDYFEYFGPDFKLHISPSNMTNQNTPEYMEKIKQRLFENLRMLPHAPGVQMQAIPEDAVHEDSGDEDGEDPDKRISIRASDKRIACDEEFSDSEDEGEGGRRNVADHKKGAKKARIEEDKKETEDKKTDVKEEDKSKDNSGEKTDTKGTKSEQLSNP
Sequence of Histone deacetylase 3 (O15379 whole entry): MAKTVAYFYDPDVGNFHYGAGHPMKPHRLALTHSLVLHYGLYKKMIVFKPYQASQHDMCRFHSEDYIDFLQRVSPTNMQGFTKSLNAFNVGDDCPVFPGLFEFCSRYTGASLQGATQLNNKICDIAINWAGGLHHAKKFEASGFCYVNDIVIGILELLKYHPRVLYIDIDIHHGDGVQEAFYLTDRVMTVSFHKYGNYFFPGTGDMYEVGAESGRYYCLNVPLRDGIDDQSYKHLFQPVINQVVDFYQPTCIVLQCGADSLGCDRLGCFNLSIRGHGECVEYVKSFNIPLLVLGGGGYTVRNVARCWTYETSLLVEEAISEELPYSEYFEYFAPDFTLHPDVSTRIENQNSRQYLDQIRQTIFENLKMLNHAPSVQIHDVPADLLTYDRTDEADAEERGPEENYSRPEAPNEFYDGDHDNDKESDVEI
Sequence of Histone deacetylase 1 (Q13547 whole entry): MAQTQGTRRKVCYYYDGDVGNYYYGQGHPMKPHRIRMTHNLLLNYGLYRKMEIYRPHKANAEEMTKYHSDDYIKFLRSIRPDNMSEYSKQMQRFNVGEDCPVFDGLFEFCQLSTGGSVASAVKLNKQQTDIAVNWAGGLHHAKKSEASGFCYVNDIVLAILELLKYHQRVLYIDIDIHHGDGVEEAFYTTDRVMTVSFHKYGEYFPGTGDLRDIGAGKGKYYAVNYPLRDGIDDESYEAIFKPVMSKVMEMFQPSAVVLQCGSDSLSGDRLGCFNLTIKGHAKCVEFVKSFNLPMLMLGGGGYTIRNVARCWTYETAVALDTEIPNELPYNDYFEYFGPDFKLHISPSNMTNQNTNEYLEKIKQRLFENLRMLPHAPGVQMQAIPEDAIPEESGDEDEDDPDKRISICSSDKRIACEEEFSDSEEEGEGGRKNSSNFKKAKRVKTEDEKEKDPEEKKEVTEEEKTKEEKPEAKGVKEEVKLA

## O=C(CCCCCCC(=O)Nc1cccc(-c2cn(-c3ccccc3)nn2)c1)NO
Cells [1]
  pIC50: > 6.30

## O=C(CCCCCCC(=O)Nc1cccc(-c2cn(-c3cc(CO)cc(CO)c3)nn2)c1)NO
[2]
  pIC50: 8.72
Histone deacetylase 2
  pIC50: 7.56
Histone deacetylase 8
  pIC50: 5.88
Histone deacetylase 1
  pIC50: 8.24
[3]
  pIC50: 8.24

## Nc1ccccc1NC(=O)CCCCCCC(=O)Nc1cccc(-n2cc(-c3ccccc3)nn2)c1
HuP-T3
  pIC50: < 4.30
Cells [1]
  pIC50: < 4.30
Histone deacetylase 3
  pIC50: 6.91
[2]
  pIC50: < 4.52
Histone deacetylase 8
  pIC50: < 4.52
[3]
  pIC50: < 4.52
BXPC-3
  pIC50: < 4.30
MIA PaCa-2
  pIC50: < 4.30
Cells [4]
  pIC50: 4.49

## O=C(CCCCCCC(=O)Nc1cccc(-n2cc(-c3ccccc3)nn2)c1)NO
[2]
  pIC50: 8.51
Histone deacetylase 2
  pIC50: 7.60
Histone deacetylase 8
  pIC50: 5.38
Histone deacetylase 1
  pIC50: 8.34
[3]
  pIC50: 8.17

## O=C(CCCCCCC(=O)Nc1cccc(-c2cn(-c3ccc(F)cc3)nn2)c1)NO
[2]
  pIC50: 8.08
Histone deacetylase 2
  pIC50: 7.22
Histone deacetylase 8
  pIC50: 4.92
Histone deacetylase 1
  pIC50: 7.50
[3]
  pIC50: 7.48

## O=C(CCCCCCC(=O)Nc1cccc(-c2cn(-c3ccc(C(F)(F)F)cc3)nn2)c1)NO
[2]
  pIC50: 8.54
Histone deacetylase 2
  pIC50: 7.55
Histone deacetylase 8
  pIC50: 5.28
Histone deacetylase 1
  pIC50: 8.06
[3]
  pIC50: 7.84

## O=C(CCCCCCC(=O)Nc1cccc(-n2cc(C3CCCCC3)nn2)c1)NO
HuP-T3
  pIC50: 6.40
Cells [1]
  pIC50: 6.30
Histone deacetylase 3
  pIC50: 8.28
[2]
  pIC50: 8.37
Histone deacetylase 2
  pIC50: 7.32
Histone deacetylase 8
  pIC50: 5.56
Histone deacetylase 1
  pIC50: 7.92
[3]
  pIC50: 7.78
BXPC-3
  pIC50: 5.70
MIA PaCa-2
  pIC50: 7.00
Cells [4]
  pIC50: 6.05

## O=C(CCCCCCC(=O)Nc1cccc(-c2cn(-c3cc(F)cc(F)c3)nn2)c1)NO
Histone deacetylase 1
  pIC50: 8.28

## O=C(CCCCCCC(=O)Nc1cccc(-c2cn(C3CCCCC3)nn2)c1)NO
HuP-T3
  pIC50: 6.40
Cells [1]
  pIC50: 6.30
Histone deacetylase 3
  pIC50: 8.43
[2]
  pIC50: 8.48
Histone deacetylase 2
  pIC50: 7.56
Histone deacetylase 8
  pIC50: 5.92
Histone deacetylase 1
  pIC50: 8.07
[3]
  pIC50: 8.01
BXPC-3
  pIC50: 5.40
MIA PaCa-2
  pIC50: 7.00
Cells [4]
  pIC50: 7.00

## O=C(CCCCCCC(=O)Nc1cccc(-c2cn(-c3ccc(I)cc3)nn2)c1)NO
HuP-T3
  pIC50: 5.85
Cells [1]
  pIC50: 5.63
[2]
  pIC50: 8.66
Histone deacetylase 2
  pIC50: 7.61
Histone deacetylase 8
  pIC50: < 4.52
Histone deacetylase 1
  pIC50: 8.10
[3]
  pIC50: 7.97
BXPC-3
  pIC50: 5.96
MIA PaCa-2
  pIC50: 5.63
Cells [4]
  pIC50: 5.11
